14 compounds from article PMC9506485, “Synthesis and Structure–Activity Relationships for the Anti-Mycobacterial Activity of 3-Phenyl-N-(Pyridin-2-ylmethyl)Pyrazolo[1,5-a]Pyrimidin-7-Amines” (Pharmaceuticals, 2022) can be followed below.

Data set [1] deals with Mycobacterium tuberculosis (strain H37Rv). Description: MABA minimum inhibitory concentration assay (aerobic/replicating). Format: cell-based. Particulars: M.tb H37Rv; for MIC90: Mycobacterium tuberculosis, aerobic/replicating, 90% inhibition of growth; for anti-mycobacterial activity in words: MABA/LORA.
Data set [2] deals with VERO green monkey kidney cells. Description: VERO mammalian cell toxicity assay. The data set is classed as cell-based. Conditions: Chlorocebus sabaeus; inhibition of growth of VERO green monkey kidney epithelial cells.
The subject of data set [3] is Mycobacterium tuberculosis (strain H37Rv). Description: LORA minimum inhibitory concentration assay (low-oxygen/non-replicating). Conditions: M.tb H37Rv, 90% inhibition of growth.
Data set [4] in a line: Microsomal stability, human liver microsomes. Format: in vitro ADME. Particulars: pH 7.4; for CLint scaled at 1 μM / half-life at 1 μM: human, microsomes; for microsomal CLint at 1 μM: human liver microsomes, read-out: HLM Clint(mic). Here is the method: (§1) Assays were performed by WuXi AppTec (Shanghai) Co., Ltd. The test compounds (Table 4) (at 1 μM) were incubated at 37 °C with liver microsomes from human or CD-1 mice in the presence of a NADPH regenerating system and phosphate buffer (100 mM, pH 7.4) at 0.5 mg/mL microsomal protein (the positive controls were testosterone, propafenone, and diclofenac). Samples were removed at time intervals of 0, 5, 10, 20, 30, and 60 min and immediately mixed with cold CH3CN (containing 0.1 μg/mL of tolbutamide as an internal standard) and then centrifuged prior to analysis by LCMS/MS.
A general note: Microsomes from liver hold many membrane-bound enzymes, among them those of drug oxidation.

Data set [5] can be described thus: Microsomal stability, mouse liver microsomes. Format: in vitro ADME. Particulars: for CLint scaled at 1 μM / half-life at 1 μM: CD-1, mouse, microsomes, pH 7.4; for microsomal CLint at 1 μM: CD-1, pH 7.4, mouse liver microsomes, read-out: MLM Clint(mic). As for the experimental part: as §1

≈ marks a conversion by molar mass, not a printed value.

Turning to `Fc1ccc(-c2cnn3c(NCc4cccc(N5CCCCC5)n4)cc(-c4ccccc4)nc23)cc1` [Compound 50, 3-(4-Fluorophenyl)-5-phenyl-N-((6-(piperidin-1-yl)pyridin-2-yl)methyl)pyrazolo[1,5-a]pyrimidin-7-amine], the melting point lay in the range of 185 to 187 °C. Further, the MIC90 in data set [1] worked out at 0.25 µg/mL (≈ 0.522 µM). The half-inhibitory concentration (IC50) in data set [2] was more than 32 µg/mL. For the same compound, the “MIC90 LORA” value in data set [3] came to 1.75 µg/mL (≈ 3.66 µM).
`COc1ccc(CNc2cc(-c3ccccc3)nc3c(-c4ccc(F)cc4)cnn23)nc1` [Compound 54, 3-(4-Fluorophenyl)-N-((5-methoxypyridin-2-yl)methyl)-5-phenylpyrazolo[1,5-a]pyrimidin-7-amine]: the melting point was in the range of 212 to 214 °C. The same compound displayed an MIC90 in data set [1] of 3.6 µg/mL (≈ 8.46 µM). The 50% inhibitory concentration (IC50) in data set [2] was more than 32 µg/mL. Further, in data set [4], the intrinsic metabolic clearance (CLint scaled) at 1 μM is less than 8.6 mL/min/kg, the half-life at 1 μM was more than 2.42 h and the microsomal CLint at 1 μM is less than 9.6 µL/min/mg. In data set [5], the CLint scaled at 1 μM is less than 38 mL/min/kg, the half-life at 1 μM was more than 2.42 h and the microsomal CLint at 1 μM is less than 9.6 µL/min/mg. In addition, the “MIC90 LORA” value in data set [3] is reported as 1.3 µg/mL (≈ 3.06 µM).
For `Fc1ccc(-c2cnn3c(NCc4ccc(N5CCCCC5)cn4)cc(-c4ccccc4)nc23)cc1` [Compound 59, 3-(4-Fluorophenyl)-5-phenyl-N-((5-(piperidin-1-yl)pyridin-2-yl)methyl)pyrazolo[1,5-a]pyrimidin-7-amine], the melting point lay in the range of 179 to 182 °C. This compound displayed an MIC90 in data set [1] of 0.96 µg/mL (≈ 2.01 µM). In data set [2], this compound displayed an IC50 of more than 32 µg/mL. Also, the “MIC90 LORA” value in data set [3] was 0.85 µg/mL (≈ 1.78 µM).
`Fc1ccc(-c2cnn3c(NCc4cc(Cl)ccn4)cc(-c4ccccc4)nc23)cc1` [Compound 60, N-((4-Chloropyridin-2-yl)methyl)-3-(4-fluorophenyl)-5-phenylpyrazolo[1,5-a]pyrimidin-7-amine] registered a melting point of 220 to 222 °C. In data set [1], the “anti-mycobacterial activity in words” value is “inactive” and the MIC90 was more than 32 µg/mL. The concentration for half-maximal inhibition (IC50) in data set [2] was more than 32 µg/mL. Besides, the “MIC90 LORA” value in data set [3] is reported as more than 32 µg/mL.
Take `N#Cc1ccnc(CNc2cc(-c3ccccc3)nc3c(-c4ccc(F)cc4)cnn23)c1` [Compound 61, 2-(((3-(4-Fluorophenyl)-5-phenylpyrazolo[1,5-a]pyrimidin-7-yl)amino)methyl)isonicotinonitrile]: the melting point was 233 to 236 °C. Further, in data set [1], the “anti-mycobacterial activity in words” value was “inactive” and the MIC90 is more than 32 µg/mL. Further, the IC50 in data set [2] is more than 32 µg/mL. Moreover, the “MIC90 LORA” value in data set [3] is given as more than 32 µg/mL.
`Cc1ccnc(CNc2cc(-c3ccccc3)nc3c(-c4ccc(F)cc4)cnn23)c1` [Compound 62, 3-(4-Fluorophenyl)-N-((4-methylpyridin-2-yl)methyl)-5-phenylpyrazolo[1,5-a]pyrimidin-7-amine]: the melting point lay within 157 to 159 °C. Further, in data set [1], the MIC90 stood at 1.8 µg/mL (≈ 4.4 µM). This compound displayed a concentration for half-maximal inhibition (IC50) in data set [2] of more than 32 µg/mL. Further, in data set [4], the CLint scaled at 1 μM was less than 8.6 mL/min/kg, the half-life at 1 μM is more than 2.42 h and the microsomal CLint at 1 μM is less than 9.6 µL/min/mg. In data set [5], the intrinsic metabolic clearance (CLint scaled) at 1 μM is less than 38 mL/min/kg, the half-life at 1 μM was more than 2.42 h and the microsomal CLint at 1 μM is less than 9.6 µL/min/mg. In data set [3], the “MIC90 LORA” value came out at 0.5 µg/mL (≈ 1.22 µM).
`Fc1ccc(-c2cnn3c(NCc4cc(N5CCCC5)ccn4)cc(-c4ccccc4)nc23)cc1` [Compound 64, 3-(4-Fluorophenyl)-5-phenyl-N-((4-(pyrrolidin-1-yl)pyridin-2-yl)methyl)pyrazolo[1,5-a]pyrimidin-7-amine] showed a melting point of 221 to 223 °C. In data set [1], this compound displayed an MIC90 of 0.47 µg/mL (≈ 1.01 µM). Besides, in data set [2], it took 16 µg/mL (≈ 34.4 µM) to reach half-maximal inhibition (IC50). Moreover, the “MIC90 LORA” value in data set [3] amounted to 0.94 µg/mL (≈ 2.02 µM).
On to `CN1CCN(c2ccnc(CNc3cc(-c4ccccc4)nc4c(-c5ccc(F)cc5)cnn34)c2)CC1` [Compound 65, 3-(4-Fluorophenyl)-N-((4-(4-methylpiperazin-1-yl)pyridin-2-yl)methyl)-5-phenylpyrazolo[1,5-a]pyrimidin-7-amine], for which the melting point fell in the range of 203 to 205 °C. Besides, in data set [1], the MIC90 came out at 0.09 µg/mL (≈ 0.182 µM). In data set [2], this compound yielded a concentration for half-maximal inhibition (IC50) of 10.7 µg/mL (≈ 21.7 µM). The “MIC90 LORA” value in data set [3] is 0.73 µg/mL (≈ 1.48 µM).
Compound `Fc1ccc(-c2cnn3c(NCc4cc(N5CCOCC5)ccn4)cc(-c4ccccc4)nc23)cc1` [Compound 66, 3-(4-Fluorophenyl)-N-((4-morpholinopyridin-2-yl)methyl)-5-phenylpyrazolo[1,5-a]pyrimidin-7-amine] had a melting point of 208 °C. Also, the MIC90 in data set [1] came to 0.06 µg/mL (≈ 0.125 µM). The compound further came in with an IC50 in data set [2] of more than 32 µg/mL. Also, the “MIC90 LORA” value in data set [3] is on record as 0.98 µg/mL (≈ 2.04 µM).
`CN(C)CCN(C)c1ccnc(CNc2cc(-c3ccccc3)nc3c(-c4ccc(F)cc4)cnn23)c1` [Compound 67, N1-(2-(((3-(4-Fluorophenyl)-5-phenylpyrazolo[1,5-a]pyrimidin-7-yl)amino)methyl)pyridin-4-yl)-N1,N2,N2-trimethylethane-1,2-diamine] returned a melting point of 158 to 160 °C. Also, the MIC90 in data set [1] stood at 1.7 µg/mL (≈ 3.43 µM). This compound also registered an IC50 in data set [2] of 9.9 µg/mL (≈ 20 µM). The “MIC90 LORA” value in data set [3] was 1.5 µg/mL (≈ 3.03 µM).
`CN(C)c1cccnc1CNc1cc(-c2ccccc2)nc2c(-c3ccc(F)cc3)cnn12` [Compound 69, N-((3-(Dimethylamino)pyridin-2-yl)methyl)-3-(4-fluorophenyl)-5-phenylpyrazolo[1,5-a]pyrimidin-7-amine] registered a melting point of 167 to 170 °C. This compound also had an MIC90 in data set [1] of 1.5 µg/mL (≈ 3.42 µM). Besides, in data set [2], the IC50 was more than 32 µg/mL. In addition, the “MIC90 LORA” value in data set [3] turned out to be 0.49 µg/mL (≈ 1.12 µM).
`Fc1ccc(-c2cnn3c(NCc4ncccc4F)cc(-c4ccccc4)nc23)cc1` [Compound 70, 3-(4-Fluorophenyl)-N-((3-fluoropyridin-2-yl)methyl)-5-phenylpyrazolo[1,5-a]pyrimidin-7-amine] returned a melting point of 165 to 168 °C. Also, the MIC90 in data set [1] was more than 32 µg/mL. For the same compound, the IC50 in data set [2] is more than 32 µg/mL. The “MIC90 LORA” value in data set [3] is more than 32 µg/mL.
In the case of `Fc1ccc(-c2cnn3c(NCc4ncccc4Br)cc(-c4ccccc4)nc23)cc1` [Compound 71, N-((3-Bromopyridin-2-yl)methyl)-3-(4-fluorophenyl)-5-phenylpyrazolo[1,5-a]pyrimidin-7-amine], the melting point is 189 to 191 °C. In data set [1], this compound displayed an MIC90 of more than 32 µg/mL. In addition, in data set [2], the IC50 was more than 32 µg/mL. For the same compound, the “MIC90 LORA” value in data set [3] is more than 32 µg/mL.
Compound `N#Cc1cccnc1CNc1cc(-c2ccccc2)nc2c(-c3ccc(F)cc3)cnn12` [Compound 72, 2-(((3-(4-Fluorophenyl)-5-phenylpyrazolo[1,5-a]pyrimidin-7-yl)amino)methyl)nicotinonitrile] returned a melting point of 241 to 244 °C. In data set [1], this compound showed an MIC90 of more than 32 µg/mL. Further, the IC50 in data set [2] is more than 32 µg/mL. For the same compound, the “MIC90 LORA” value in data set [3] is given as more than 32 µg/mL.

A word on the MIC90: it is the lowest concentration that inhibits either 90% of growth or 90% of the strains tested, depending on the study. By IC50 is commonly meant the concentration at which inhibition is half-maximal. The term melting point denotes the temperature, or range, at which the solid turns liquid. Broadly, the CLint scaled is the rate of metabolic loss divided by the concentration. By half-life is commonly meant the time in which the quantity being followed falls by half.
